These compounds were tested on HCT116 (assay: In Vitro cytotoxicity measured by the cell colony formation assay). Settings: HCT116 colony formation; 72 h with drug, colonies counted after 7 days; ID50 = concentration producing 50% inhibition of colony formation; read-out: IN VITRO ID 50 HCT116.
Type: cell-based, human
Summary of the method: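 Four hundred cells per dish in McCoy's 5a medium with 10% FBS were allowed to attach for 5 h at 37 °C. They were then exposed to compound for 72 h at 37 °C, added as a 10× stock made fresh in medium. After HBSS rinsing and refeeding, colonies were counted after 7 days.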

Structure (SMILES)	IC50 [nM]
CCCC(=O)N[C@@H](c1cccs1)[C@@H](O)C(=O)O[C@H]1C[C@@]2(O)[C@@H](OC(=O)c3ccccc3)[C@@H]3[C@]4(OC(C)=O)CO[C@@H]4C[C@H](O)[C@@]3(C)C(=O)[C@H](OC(=O)CCC)C(=C1C)C2(C)C [Compound 3148]	< 1

Same assay, conditions: Homo sapiens, HCT-116; read-out: IN VITRO ID 50 HCT116

Structure (SMILES)	IC50 [nM]
CC(=O)O[C@@]12CO[C@@H]1C[C@H](O)[C@@]1(C)C(=O)[C@H](OC(=O)C=C(C)C)C3=C(C)[C@@H](OC(=O)[C@H](O)[C@@H](NC(=O)OC(C)(C)C)c4ccccc4)C[C@@](O)([C@@H](OC(=O)c4ccccc4)[C@H]21)C3(C)C [Compound 2520]	< 10
CC(=O)O[C@@]12CO[C@@H]1C[C@H](O)[C@@]1(C)C(=O)[C@H](OC(=O)C3CC3)C3=C(C)[C@@H](OC(=O)[C@H](O)[C@@H](NC(=O)OC(C)(C)C)c4ccoc4)C[C@@](O)([C@@H](OC(=O)c4ccccc4)[C@H]21)C3(C)C [Compound 2781]	< 1
CC(=O)O[C@@]12CO[C@@H]1C[C@H](O)[C@@]1(C)C(=O)[C@H](OC(=O)C3CC3)C3=C(C)[C@@H](OC(=O)[C@H](O)[C@@H](NC(=O)OC(C)(C)C)c4ccsc4)C[C@@](O)([C@@H](OC(=O)c4ccccc4)[C@H]21)C3(C)C [Compound 2794]	< 1
CC(=O)O[C@@]12CO[C@@H]1C[C@H](O)[C@@]1(C)C(=O)[C@H](OC(=O)C3CC3)C3=C(C)[C@@H](OC(=O)[C@H](O)[C@@H](NC(=O)OC(C)(C)C)c4ccccn4)C[C@@](O)([C@@H](OC(=O)c4ccccc4)[C@H]21)C3(C)C [Compound 2802]	< 1
CC(=O)O[C@@]12CO[C@@H]1C[C@H](O)[C@@]1(C)C(=O)[C@H](OC(=O)C3CC3)C3=C(C)[C@@H](OC(=O)[C@H](O)[C@@H](NC(=O)OC(C)(C)C)c4ccncc4)C[C@@](O)([C@@H](OC(=O)c4ccccc4)[C@H]21)C3(C)C [Compound 2813]	< 1
CC(=O)O[C@@]12CO[C@@H]1C[C@H](O)[C@@]1(C)C(=O)[C@H](OC(=O)C3CC3)C3=C(C)[C@@H](OC(=O)[C@H](O)[C@@H](NC(=O)c4ccccc4)c4ccoc4)C[C@@](O)([C@@H](OC(=O)c4ccccc4)[C@H]21)C3(C)C [Compound 2826]	< 1
CC(=O)O[C@@]12CO[C@@H]1C[C@H](O)[C@@]1(C)C(=O)[C@H](OC(=O)C3CC3)C3=C(C)[C@@H](OC(=O)[C@H](O)[C@@H](NC(=O)c4ccccc4)c4ccsc4)C[C@@](O)([C@@H](OC(=O)c4ccccc4)[C@H]21)C3(C)C [Compound 2838]	< 1
CC(=O)O[C@@]12CO[C@@H]1C[C@H](O)[C@@]1(C)C(=O)[C@H](OC(=O)C3CC3)C3=C(C)[C@@H](OC(=O)[C@H](O)[C@@H](NC(=O)c4ccccc4)c4ccccn4)C[C@@](O)([C@@H](OC(=O)c4ccccc4)[C@H]21)C3(C)C [Compound 2844]	< 10
CC(=O)O[C@@]12CO[C@@H]1C[C@H](O)[C@@]1(C)C(=O)[C@H](OC(=O)C3CC3)C3=C(C)[C@@H](OC(=O)[C@H](O)[C@@H](NC(=O)c4ccccc4)c4ccncc4)C[C@@](O)([C@@H](OC(=O)c4ccccc4)[C@H]21)C3(C)C [Compound 2855]	< 1
CC(=O)O[C@@]12CO[C@@H]1C[C@H](O)[C@@]1(C)C(=O)[C@H](OC(=O)C3CC3)C3=C(C)[C@@H](OC(=O)[C@H](O)[C@@H](NC(=O)c4ccccc4)c4ccc([N+](=O)[O-])cc4)C[C@@](O)([C@@H](OC(=O)c4ccccc4)[C@H]21)C3(C)C [Compound 2869]	< 10
CCC(=O)O[C@H]1C(=O)[C@@]2(C)[C@H]([C@H](OC(=O)c3ccccc3)[C@]3(O)C[C@H](OC(=O)[C@H](O)[C@@H](NC(=O)c4ccco4)c4cccs4)C(C)=C1C3(C)C)[C@]1(OC(C)=O)CO[C@@H]1C[C@@H]2O [Compound 3053]	< 1
CC(=O)O[C@@]12CO[C@@H]1C[C@H](O)[C@@]1(C)C(=O)[C@H](OC(=O)C3CC3)C3=C(C)[C@@H](OC(=O)[C@H](O)[C@@H](NC(=O)OC(C)C)c4cccs4)C[C@@](O)([C@@H](OC(=O)c4ccccc4)[C@H]21)C3(C)C [Compound 3071]	< 1
CCCC(=O)O[C@H]1C(=O)[C@@]2(C)[C@H]([C@H](OC(=O)c3ccccc3)[C@]3(O)C[C@H](OC(=O)[C@H](O)[C@@H](NC(=O)OCC)c4cccs4)C(C)=C1C3(C)C)[C@]1(OC(C)=O)CO[C@@H]1C[C@@H]2O [Compound 3096]	< 1
CC(=O)O[C@@]12CO[C@@H]1C[C@H](O)[C@@]1(C)C(=O)[C@H](OC(=O)C3CC3)C3=C(C)[C@@H](OC(=O)[C@H](O)[C@@H](NC(=O)OCC(C)C)c4ccco4)C[C@@](O)([C@@H](OC(=O)c4ccccc4)[C@H]21)C3(C)C [Compound 3102]	< 1
CC(=O)O[C@@]12CO[C@@H]1C[C@H](O)[C@@]1(C)C(=O)[C@H](OC(=O)C3CC3)C3=C(C)[C@@H](OC(=O)[C@H](O)[C@@H](NC(=O)OCC(C)C)c4cccs4)C[C@@](O)([C@@H](OC(=O)c4ccccc4)[C@H]21)C3(C)C [Compound 3129]	< 10
CCCC(=O)N[C@@H](c1cccs1)[C@@H](O)C(=O)O[C@H]1C[C@@]2(O)[C@@H](OC(=O)c3ccccc3)[C@@H]3[C@]4(OC(C)=O)CO[C@@H]4C[C@H](O)[C@@]3(C)C(=O)[C@H](OC(=O)C3CC3)C(=C1C)C2(C)C [Compound 3132]	< 1
CCC(=O)O[C@H]1C(=O)[C@@]2(C)[C@H]([C@H](OC(=O)c3ccccc3)[C@]3(O)C[C@H](OC(=O)[C@H](O)[C@@H](NC(=O)OCC(C)C)c4cccs4)C(C)=C1C3(C)C)[C@]1(OC(C)=O)CO[C@@H]1C[C@@H]2O [Compound 3163]	< 1
CCCC(=O)O[C@H]1C(=O)[C@@]2(C)[C@H]([C@H](OC(=O)c3ccccc3)[C@]3(O)C[C@H](OC(=O)[C@H](O)[C@@H](NC(=O)c4ccccc4)c4ccco4)C(C)=C1C3(C)C)[C@]1(OC(C)=O)CO[C@@H]1C[C@@H]2O [Compound 3204]	< 1
CCCC(=O)N[C@@H](c1ccco1)[C@@H](O)C(=O)O[C@H]1C[C@@]2(O)[C@@H](OC(=O)c3ccccc3)[C@@H]3[C@]4(OC(C)=O)CO[C@@H]4C[C@H](O)[C@@]3(C)C(=O)[C@H](OC(=O)CC)C(=C1C)C2(C)C [Compound 3219]	< 1
CCCC(=O)N[C@@H](c1ccco1)[C@@H](O)C(=O)O[C@H]1C[C@@]2(O)[C@@H](OC(=O)c3ccccc3)[C@@H]3[C@]4(OC(C)=O)CO[C@@H]4C[C@H](O)[C@@]3(C)C(=O)[C@H](OC(=O)CCC)C(=C1C)C2(C)C [Compound 3222]	< 1
CCCC(=O)O[C@H]1C(=O)[C@@]2(C)[C@H]([C@H](OC(=O)c3ccccc3)[C@]3(O)C[C@H](OC(=O)[C@H](O)[C@@H](NC(=O)c4ccccc4)c4cccs4)C(C)=C1C3(C)C)[C@]1(OC(C)=O)CO[C@@H]1C[C@@H]2O [Compound 3258]	< 1
CCCC(=O)O[C@H]1C(=O)[C@@]2(C)[C@H]([C@H](OC(=O)c3ccccc3)[C@]3(O)C[C@H](OC(=O)[C@H](O)[C@@H](NC(=O)OCC(C)C)c4cccs4)C(C)=C1C3(C)C)[C@]1(OC(C)=O)CO[C@@H]1C[C@@H]2O [Compound 3265]	< 10
CC(=O)O[C@@]12CO[C@@H]1C[C@H](O)[C@@]1(C)C(=O)[C@H](OC(=O)C3CC3)C3=C(C)[C@@H](OC(=O)[C@H](O)[C@@H](NC(=O)c4ccco4)c4cccs4)C[C@@](O)([C@@H](OC(=O)c4ccccc4)[C@H]21)C3(C)C [Compound 3297]	< 1
CCCC(=O)O[C@H]1C(=O)[C@@]2(C)[C@H]([C@H](OC(=O)c3ccccc3)[C@]3(O)C[C@H](OC(=O)[C@H](O)[C@@H](NC(=O)c4ccco4)c4cccs4)C(C)=C1C3(C)C)[C@]1(OC(C)=O)CO[C@@H]1C[C@@H]2O [Compound 3352]	< 1

From EP1285920A1, “C10 Ester sustituted taxanes as antitumor agents” (Florida State University Research Foundation, Inc., priority 2001, dated 2003)
